# Reference: patent US12540118B2, “Dendrene amide compound, bactericide and use thereof” (Jiangsu Flag Chemical Industry Co., Ltd., priority 2020, dated 2026)
# Read-outs that look alike come from different tables or passages of the source.
# Tests used:
# Fusarium fujikura [1] = assay: Therapeutic activity against rice bakanae disease; format: in vivo; settings: 5 μg/mL, solvent DMSO
# Text: (§1) Test of protective activity and therapeutic activity of Compound 1 against rice bakanae disease.
# (§2) The test and investigation method refers to SOP-SC-1112 rice bakanae disease potting method in disinfectant rolls written by KANGZHUO and GUBAOGEN in “Standard operation specification for testing biological activity of pesticides”.
# (§3) The phenamacril is a mainstream medicament for preventing and treating the rice bakanae disease at present, resistant strains are more and more along with long-time use, and […] strains showing sensitivity and one strain showing resistance to the […] are selected as test strains.
# (§4) Four Fusarium fujikura SX18-32, SX18-50, SX18-59 and SX18-63 are selected for testing strains, and the current mainstream commercial bactericide phenamacril is selected as a positive control. Wherein SX18-32, SX18-50 and SX18-59 show sensitivity to phenamacril and SX18-63 show resistance to phenamacril.
# Sclerotinia sclerotiorum = assay: Mycelial growth rate method; format: cell-based
# Phytophthora infestans = format: cell-based
# Phytophthora capsici = assay: Mycelial growth rate method; format: cell-based
# Rhizoctonia cerealis = assay: Mycelial growth rate method; format: cell-based
# Fusarium fujikura [2] = assay: Protective activity against rice bakanae disease; format: in vivo; settings: 5 μg/mL, solvent DMSO
# Text: as §1, §2, §3, §4
# [3] = tested on: Fusarium wilt of water melon; assay: Mycelial growth rate method; format: cell-based
# Alternaria solani = assay: Mycelial growth rate method; format: cell-based
# Sphaerotheca fuliginea [4] = assay: Sphaerotheca fuliginea potting method; format: in vivo; settings: Podosphaera fuliginea; 100 mg/L; read-out: Sphaerotheca fuliginea control rating
# Procedure: The fungicidal activity of the control agents and target compounds are determined. The test and investigation method refers to SOP-SC-1101 sphaerotheca fuliginea potting method in disinfectant rolls written by KANGZHUO and GUBAOGEN in “Standard operation specification for testing biological activity of pesticides”.
# Corn big spot = assay: Mycelial growth rate method; format: cell-based
# Gibberella zeae = format: cell-based
# Erysiphe graminis = Erysiphe graminis potting method; format: in vivo; settings: Blumeria graminis; 100 mg/L; read-out: Erysiphe graminis control rating
# Procedure: The fungicidal activity of the control agents and target compounds are determined. The test and investigation method refers to SOP-SC-1116 Erysiphe graminis potting method in disinfectant rolls written by KANGZHUO and GUBAOGEN in “Standard operation specification for testing biological activity of pesticides”.
# succinate dehydrogenase = biological target: T1, succinate dehydrogenase (Sus scrofa, UniProt A5GZW8+D0VWV4+Q007T0); assay: Enzyme activity assay, succinate dehydrogenase (DCIP reduction); format: biochemical, porcine; settings: read-out: Inhibitors (10 μM, SQR)
# T1 construct: isolated from porcine hearts; from tissue; host or cells: porcine heart
# T1 sequence (Q0QF01 43-664 partner): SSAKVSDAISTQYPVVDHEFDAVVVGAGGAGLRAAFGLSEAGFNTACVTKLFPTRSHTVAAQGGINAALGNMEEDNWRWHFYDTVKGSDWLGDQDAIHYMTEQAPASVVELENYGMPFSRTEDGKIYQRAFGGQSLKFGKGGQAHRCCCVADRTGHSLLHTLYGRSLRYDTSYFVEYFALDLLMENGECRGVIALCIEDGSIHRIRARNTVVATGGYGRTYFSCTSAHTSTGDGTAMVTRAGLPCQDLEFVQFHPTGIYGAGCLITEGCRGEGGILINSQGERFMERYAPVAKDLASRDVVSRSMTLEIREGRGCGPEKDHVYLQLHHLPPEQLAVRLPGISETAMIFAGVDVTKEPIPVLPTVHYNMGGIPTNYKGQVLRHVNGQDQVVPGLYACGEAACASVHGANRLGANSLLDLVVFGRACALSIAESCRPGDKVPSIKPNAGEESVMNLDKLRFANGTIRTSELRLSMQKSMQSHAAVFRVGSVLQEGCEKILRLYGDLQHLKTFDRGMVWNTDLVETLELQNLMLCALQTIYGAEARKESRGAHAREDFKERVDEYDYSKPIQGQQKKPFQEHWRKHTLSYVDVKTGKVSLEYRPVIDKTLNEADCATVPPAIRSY
# T1 sequence (Q007T0 29-280): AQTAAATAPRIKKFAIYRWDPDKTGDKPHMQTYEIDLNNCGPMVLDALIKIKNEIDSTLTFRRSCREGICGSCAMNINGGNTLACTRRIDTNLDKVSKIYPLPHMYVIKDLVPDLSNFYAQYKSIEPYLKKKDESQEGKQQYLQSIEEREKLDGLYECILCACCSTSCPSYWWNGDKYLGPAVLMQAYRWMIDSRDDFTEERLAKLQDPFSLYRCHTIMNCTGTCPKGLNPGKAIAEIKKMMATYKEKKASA
# T1 sequence (D0VWV4 30-169): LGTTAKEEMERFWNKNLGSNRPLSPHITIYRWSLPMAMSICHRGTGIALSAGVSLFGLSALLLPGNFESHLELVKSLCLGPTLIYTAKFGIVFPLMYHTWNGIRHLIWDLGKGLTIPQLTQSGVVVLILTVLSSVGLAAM
# T1 sequence (A5GZW8 57-159 limits assumed): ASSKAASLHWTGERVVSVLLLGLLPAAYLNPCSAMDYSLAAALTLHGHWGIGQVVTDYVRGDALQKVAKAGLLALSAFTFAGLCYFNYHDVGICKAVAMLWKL
# Outline: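 Porcine heart succinate dehydrogenase (2 nM) in 100 mM sodium phosphate pH 7.4, 0.3 mM EDTA, 20 mM sodium succinate and 53 μM DCIP at 23° C with stirring. DCIP reduction followed at 600 nm (ε 21 mM^−1 cm^−1); linear slope minus baseline gives initial rate.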
# Sphaerotheca fuliginea [5] = assay: Field test of sphaerotheca fuliginea; format: in vivo
# Procedure: The test is carried out according to GB/T17980.30-2000 of pesticide field efficacy test guidelines. The survey method is to randomly take four points for each cell and survey all leaves of 2 plants per point. And investigating the sphaerotheca fuliginea incidence before the first application, and investigating the sphaerotheca fuliginea incidence 7 and 14 days after the second application respectively, and calculating the disease index and the controlling effect.
# Alternaria alternata = assay: Mycelial growth rate method; format: cell-based
# [6] = strain SX18-59 (S), listed as compound 1
# [7] = strain SX18-63 (R), listed as compound 1
structure (smiles),measurement,setting,value
C=C(CN(C(=O)c1c(C(F)F)nn(C)c1F)C1CC1)c1ccc(Cl)cc1Cl [Compound 1],Therapeutic activity,Fusarium fujikura [1]; strain SX18-32 (S),60.2%
same,Therapeutic activity,Fusarium fujikura [1]; strain SX18-59 (S),96.8%
same,Therapeutic activity,Fusarium fujikura [1]; [6],96.8%
same,Therapeutic activity,Fusarium fujikura [1]; strain SX18-63 (R),83.3%
same,Therapeutic activity,Fusarium fujikura [1]; [7],far better therapeutic effect
same,Inhibition ratio (%) Sclerotinia sclerotiorum,Sclerotinia sclerotiorum; 1.5625 μg/mL,C (C <70%)
same,Inhibition ratio (%) Sclerotinia sclerotiorum,Sclerotinia sclerotiorum; 6.25 μg/mL,A (80% ≤ A ≤ 100%)
same,Inhibition ratio (%) Sclerotinia sclerotiorum,Sclerotinia sclerotiorum; 25 μg/mL,A (80% ≤ A ≤ 100%)
same,Inhibition ratio (%) Phytophthora infestans,Phytophthora infestans; 1.5625 μg/mL,A (80% ≤ A ≤ 100%)
same,Inhibition ratio (%) Phytophthora infestans,Phytophthora infestans; 6.25 μg/mL,A (80% ≤ A ≤ 100%)
same,Inhibition ratio (%) Phytophthora infestans,Phytophthora infestans; 25 μg/mL,A (80% ≤ A ≤ 100%)
same,Inhibition ratio (%) Phytophthora capsici,Phytophthora capsici; 1.5625 μg/mL,B (70% ≤ B < 80%)
same,Inhibition ratio (%) Phytophthora capsici,Phytophthora capsici; 6.25 μg/mL,A (80% ≤ A ≤ 100%)
same,Inhibition ratio (%) Phytophthora capsici,Phytophthora capsici; 25 μg/mL,A (80% ≤ A ≤ 100%)
same,Inhibition ratio (%) Rhizoctonia cerealis,Rhizoctonia cerealis; 1.5625 μg/mL,C (C <70%)
same,Inhibition ratio (%) Rhizoctonia cerealis,Rhizoctonia cerealis; 6.25 μg/mL,B (70% ≤ B < 80%)
same,Inhibition ratio (%) Rhizoctonia cerealis,Rhizoctonia cerealis; 25 μg/mL,A (80% ≤ A ≤ 100%)
same,Protective activity,Fusarium fujikura [2]; strain SX18-32 (S),97.4%
same,Protective activity,"Fusarium fujikura [2]; strain SX18-32 (S), listed as compound 1",more than 90%
same,Protective activity,Fusarium fujikura [2]; strain SX18-59 (S),100.0%
same,Protective activity,Fusarium fujikura [2]; [6],more than 90%
same,Protective activity,Fusarium fujikura [2]; strain SX18-63 (R),93.7%
same,Protective activity,Fusarium fujikura [2]; [7],more than 90%
same,Inhibition ratio (%) Fusarium wilt of water melon,[3]; 1.5625 μg/mL,A (80% ≤ A ≤ 100%)
same,Inhibition ratio (%) Fusarium wilt of water melon,[3]; 6.25 μg/mL,A (80% ≤ A ≤ 100%)
same,Inhibition ratio (%) Fusarium wilt of water melon,[3]; 25 μg/mL,A (80% ≤ A ≤ 100%)
same,Inhibition ratio (%) Alternaria solani,Alternaria solani; 1.5625 μg/mL,A (80% ≤ A ≤ 100%)
same,Inhibition ratio (%) Alternaria solani,Alternaria solani; 6.25 μg/mL,A (80% ≤ A ≤ 100%)
same,Inhibition ratio (%) Alternaria solani,Alternaria solani; 25 μg/mL,A (80% ≤ A ≤ 100%)
same,pest or weed control at 100 µg/mL,Sphaerotheca fuliginea [4],80 to 100%
same,Inhibition ratio (%) Corn big spot,Corn big spot; 1.5625 μg/mL,A (80% ≤ A ≤ 100%)
same,Inhibition ratio (%) Corn big spot,Corn big spot; 6.25 μg/mL,A (80% ≤ A ≤ 100%)
same,Inhibition ratio (%) Corn big spot,Corn big spot; 25 μg/mL,A (80% ≤ A ≤ 100%)
same,Inhibition ratio (%) Gibberella zeae,Gibberella zeae; 1.5625 μg/mL,A (80% ≤ A ≤ 100%)
same,Inhibition ratio (%) Gibberella zeae,Gibberella zeae; 6.25 μg/mL,A (80% ≤ A ≤ 100%)
same,Inhibition ratio (%) Gibberella zeae,Gibberella zeae; 25 μg/mL,A (80% ≤ A ≤ 100%)
same,pest or weed control at 100 µg/mL,Erysiphe graminis,80 to 100%
same,inhibition at 10 µM,succinate dehydrogenase,> 90%
same,Controlling effect %,Sphaerotheca fuliginea [5]; 50 mg/L,82%
same,Controlling effect %,"Sphaerotheca fuliginea [5]; 50 mg/L, listed as compound 1",more than 80%
same,Controlling effect %,Sphaerotheca fuliginea [5]; 100 mg/L,88%
same,Controlling effect %,"Sphaerotheca fuliginea [5]; 100 mg/L, listed as compound 1",the same control effect as the current mainstream insecticides
same,Controlling effect %,Sphaerotheca fuliginea [5]; 200 mg/L,92%
same,Inhibition ratio (%) Alternaria alternata,Alternaria alternata; 1.5625 μg/mL,A (80% ≤ A ≤ 100%)
same,Inhibition ratio (%) Alternaria alternata,Alternaria alternata; 6.25 μg/mL,A (80% ≤ A ≤ 100%)
same,Inhibition ratio (%) Alternaria alternata,Alternaria alternata; 25 μg/mL,A (80% ≤ A ≤ 100%)
